According to PubChem BioAssay AID1963827 (Molecular Pharmacology Branch, DTP, NCI, 2024):

Test system: 994946-033-R-J1-PDC complex spheroid viability
Assay: Anticancer human tumor 994946-033-R-J1-PDC patient-derived melanoma cell line growth inhibition [POLQ]
Conditions: for IC50: curve of first compound; for viability, T/C: stronger effect = lower value
Description: Multicellular complex tumor spheroid response to Polymerase (POL) inhibitors (novobiocin, ART-558, RP6685) in combination with a variety of drugs and investigational agents in selected tumor cell lines
The POL inhibitors (novobiocin, ART-558, and RP6685) were evaluated both individually and in combination with standard of care and investigational anticancer small molecules within a complex spheroid model of solid tumors. . Complex spheroids include a stromal component modeled by human endothelial cells (HUVEC) and fibroblasts modeled by human mesenchymal stem cells (MSCs). The concentration ranges selected for each drug and investigational agent were based upon clinically achievable concentrations if the clinical Cmax of the agent was known.
Compounds. The drugs and investigational agents: novobiocin (NSC847541), ART-558 (NSC835418), RP-6685 (NSC848927), peposertib (NSC802822), ceralasertib (NSC780249), elimusertib (NSC800525), camonsertib (NSC841442), AZD-1390 (NSC803789), olaparib (NSC753686), talazoparib (NSC767125), rucaparib (NSC756644), sotorasib (NSC818433), MRTX-1133 (NSC836407), SN-38 (NSC673596), topotecan (NSC609699), epotoside (NSC141540), doxorubicin (NSC123127), gemcitabine (NSC613327), 5-fluorouracil (NSC19893), paclitaxel (NSC125973), vemurafenib (NSC761431), MSA-2 (NSC828583), SN-011 (NSC837082), adavosertib (NSC754352), prexasertib (NSC758257), carboplatin (NSC241240) and oxaliplatin (NSC266046), were obtained from the National Cancer Institute (NCI) Developmental Therapeutics Program Chemical Repository (21). The FDA-approved anticancer drug set is available from the Developmental Therapeutics Program at https://dtp.cancer.gov/organization/dscb/obtaining/. […] The stock solutions were prepared in dimethyl sulfoxide (DMSO, Sigma-Aldrich, St. Louis, MO, cat. D2650), except for the platinum compounds which were prepared in saline (Quality Biological, Gaithersburg, MD, cat. 114-055-101), at 800-fold the tested concentration and stored at -70 degrees C prior to their use. All drugs and investigational agents were tested over a range starting from a high concentration at or near the clinical Cmax and decreasing in half-log increments. If the clinical Cmax for an agent had not been determined, the highest concentration tested was 10 microM, except for SN-38, which was tested at a high concentration of 1 microM.
Cell Culture. All cells were maintained in an incubator at 37 degrees C and 5% CO2 with 95% humidity. The PDC lines were cultured according to standard operating procedures established by the NCI PDMR (https://pdmr.cancer.gov). Table 3 of the manuscript, lists the cell lines along with the number of the three cell types plated to form the mct-spheroids and media for tumor cell growth. After thawing, all PDC lines, except 997537-175-T-J1-PDC and 415267-285-R-J2-PDC, were cultured in Matrigel-coated flasks prepared with a working solution of 1X Ham's F-12 nutrient mix, without supplementation (Thermo Fisher Scientific, cat. 11765054), 100 U/mL penicillin-streptomycin (Thermo Fisher Scientific, cat. 15140122), and 2.5% Matrigel (Corning Inc., Corning, NY, cat. 354248) for the first three passages. The two PDC lines 997537-175-T-J1-PDC and 415267-285-R-J2-PDC were cultured on uncoated flasks. The 857933-349-R-J2-PDC line was cultured in 6C/Colon 1B media containing advanced DMEM/F-12 (Thermo Fisher Scientific, cat. 12634028), 10 mM HEPES (Thermo Fisher Scientific, cat. 15630080), 1X GlutaMAX supplement (Thermo Fisher Scientific, cat. 35050061), 0.1 mg/mL primocin (InvivoGen, San Diego, CA, cat. ant-pm-2), 10% defined fetal bovine serum, heat inactivated (HyClone Laboratories Inc., Logan, UT, cat. SH30070.03HI), 50% L-WRN conditioned media (ATCC, cat. CRL-3276), 1.25 mM N-Acetyl-L-cysteine (Sigma-Aldrich, cat. A9165), 10 mM nicotinamide (Sigma-Aldrich, cat. N0636), 1X B-27 supplement (Thermo Fisher Scientific, cat. 17504044), 1X N-2 supplement (Thermo Fisher Scientific, cat. […]
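Also: spheroids exposed to drugs for 7 days.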
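For viability, T/C in this document: 100% = DMSO vehicle treated spheroids.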

`C=CC(=O)N1CCN(c2nc(=O)n(-c3c(C)ccnc3C(C)C)c3nc(-c4c(O)cccc4F)c(F)cc23)C(C)C1` (configuration not stated) + COC1C(OC(N)=O)C(O)C(Oc2ccc3c(O)c(NC(=O)c4ccc(O)c(CC=C(C)C)c4)c(=O)oc3c2C)OC1(C)C showed an IC50 (second compound 0.0316 µM) of over 10 µM, an IC50 (second compound 0.1 µM) of over 10 µM and an IC50 (second compound 0.316 µM) of over 10 µM. The IC50 (second compound 1 µM) was over 10 µM, the IC50 (second compound 3.16 µM) was over 10 µM and the IC50 (second compound 10 µM) was over 10 µM. It also gave a viability, T/C (second compound 0.0316 µM, first compound 0.0316 µM) of 80.4%, a viability, T/C (second compound 0.0316 µM, first compound 0.1 µM) of 110% and a viability, T/C (second compound 0.0316 µM, first compound 0.316 µM) of 104%. The viability, T/C (second compound 0.0316 µM, first compound 1 µM) was 101%, the viability, T/C (second compound 0.0316 µM, first compound 3.16 µM) was 104% and the viability, T/C (second compound 0.0316 µM, first compound 10 µM) was 95.5%. For the same molecule, the viability, T/C (second compound 0.1 µM, first compound 0.0316 µM) was 102%, the viability, T/C (second compound 0.1 µM, first compound 0.1 µM) was 105% and the viability, T/C (second compound 0.1 µM, first compound 0.316 µM) was 87.5%. It also gave a viability, T/C (second compound 0.1 µM, first compound 1 µM) of 99.5%, a viability, T/C (second compound 0.1 µM, first compound 3.16 µM) of 90.8% and a viability, T/C (second compound 0.1 µM, first compound 10 µM) of 114%. The viability, T/C (second compound 0.316 µM, first compound 0.0316 µM) was 92.8%, the viability, T/C (second compound 0.316 µM, first compound 0.1 µM) was 111% and the viability, T/C (second compound 0.316 µM, first compound 0.316 µM) was 119%. The viability, T/C (second compound 0.316 µM, first compound 1 µM) was 99%, the viability, T/C (second compound 0.316 µM, first compound 3.16 µM) was 138% and the viability, T/C (second compound 0.316 µM, first compound 10 µM) was 104%. It also gave a viability, T/C (second compound 1 µM, first compound 0.0316 µM) of 112%, a viability, T/C (second compound 1 µM, first compound 0.1 µM) of 93.5% and a viability, T/C (second compound 1 µM, first compound 0.316 µM) of 118%. For the same molecule, the viability, T/C (second compound 1 µM, first compound 1 µM) was 85.9%, the viability, T/C (second compound 1 µM, first compound 3.16 µM) was 112% and the viability, T/C (second compound 1 µM, first compound 10 µM) was 75.7%. For the same molecule, the viability, T/C (second compound 3.16 µM, first compound 0.0316 µM) was 94%, the viability, T/C (second compound 3.16 µM, first compound 0.1 µM) was 108% and the viability, T/C (second compound 3.16 µM, first compound 0.316 µM) was 113%. The viability, T/C (second compound 3.16 µM, first compound 1 µM) was 105%, the viability, T/C (second compound 3.16 µM, first compound 3.16 µM) was 93.3% and the viability, T/C (second compound 3.16 µM, first compound 10 µM) was 115%. It also gave a viability, T/C (second compound 10 µM, first compound 0.0316 µM) of 98.1%, a viability, T/C (second compound 10 µM, first compound 0.1 µM) of 81.7% and a viability, T/C (second compound 10 µM, first compound 0.316 µM) of 99.9%. It also gave a viability, T/C (second compound 10 µM, first compound 1 µM) of 124%, a viability, T/C (second compound 10 µM, first compound 3.16 µM) of 86.9% and a viability, T/C (second compound 10 µM, first compound 10 µM) of 105%.
